What is called IC50 is the concentration that inhibits the measured activity by half.

For assay [1], the system named is Gram-negative and Gram-positive bacteria. The conditions noted are these: natural and synthetic peptides; cited from earlier work. Here is the method: Our experimental data for the obtained recombinant PM I are in line with those obtained earlier for synthetic PM I against Gram-negative and Gram-positive bacteria (with reported MICs not exceeding 1 μM).
Assay [2] relates to HEF (human embryonic fibroblasts). It is filed as cell-based. The conditions noted are these: HEF normal cells; MTT after 48 h, DMEM/F12 with 10% FBS; mean ± SD of at least three independent experiments. Here is the method:
(§1) Cytotoxic activities of PM III, its isoforms, and tachyplesins against seven human cell lines were evaluated. Four cancer (HL-60 acute promyelocytic leukemia, HeLa cervix adenocarcinoma, SK-BR-3 breast adenocarcinoma, A549 lung carcinoma), one transformed (HEK 293T transformed human embryonic kidney), and two normal human cell lines (HEF human embryonic fibroblasts and NHA normal human astrocytes) were used for these experiments. Cytotoxicity was measured by incubating the cells with serial dilutions of PM I, PM II, PM III, TP I, TP II, or TP III samples followed by MTT assay after 48 h. The half-maximal inhibitory concentrations (IC50) were measured as the peptide concentration at which cell viability was reduced by 50% in comparison to untreated cells (Table 3).
(§2) The following tumor and transformed cell lines were used in this study: HL-60 (acute promyelocytic leukemia), HeLa (human cervix adenocarcinoma cells), SK-BR-3 (human breast adenocarcinoma cells), A549 (human lung carcinoma cells), HEK 293T (transformed human embryonic kidney cells), HEF (human embryonic fibroblasts), and NHA (normal human astrocytes) were used as normal cell lines. Tumor and transformed cell lines were obtained from the American Type Culture Collection (ATCC; www.atcc.org). Primary cells HEF (normal human embryonic fibroblasts derived from human embryonic stem cells) and NHA (normal human astrocytes derived from human fetal brain tissue) were obtained and cultured according to the corresponding protocol. Briefly, cells were cultured in DMEM/F12 (1:1) or RPMI-1640 medium containing 10% fetal bovine serum (Invitrogen, USA) at 37 °C in the atmosphere containing 5% CO2 and 95% air according to standard mammalian tissue culture protocols and using a sterile technique. All cell lines were tested by using the LookOut® Mycoplasma PCR Detection Kit (Sigma-Aldrich, St. Louis, MO, USA) according to the manufacturer’s protocol and found to be free of Mycoplasma infection.
(§3) The colorimetric 3-(4,5-dimethylthiazol-2-yl)-2,5-diphenyltetrazolium bromide (MTT) dye reduction assay was used to determine the cytotoxicity of the polyphemusins and tachyplesins. Cells (3 × 10^3–6 × 10^3 per well) were placed into 96-well plates in Dulbecco’s modified Eagle’s medium (DMEM/F12) supplemented with 10% fetal bovine serum (FBS). After incubation in the atmosphere containing 5% CO2 and 95% air at 37 °C overnight, the media were discarded, and polyphemusins or tachyplesins solutions were added to the cell cultures up to final concentrations of 2.5, 5, 10, 25, and 50 μM in a final volume of 0.1 mL DMEM/F12 with 10% FBS. HL-60 cells (4 × 10^4 in 50 μL) were added to two-time serial dilutions of polyphemusins solutions at a final concentration of 1.25, 2.5, 5, 10, 25, and 50 μM in 50 μL RPMI-1640 with 10% FBS. 48 hours later, 20 μL of MTT (5 mg/mL) was added into each well and the plates were incubated for 3 h at 37 °C. The plates with HL-60 cells were centrifuged for 10 min at 300 g. The media were discarded and 0.1 mL of dimethyl sulfoxide and isopropanol mixture at a ratio of 1:1 (v/v) was added to each well to dissolve the crystallized formazan. The absorbance at 570 nm was measured by a microplate reader (Eppendorf, Hamburg, Germany).

Assay [3] deals with HeLa (human cervix adenocarcinoma cells). It is filed as cell-based. To be noted: MTT after 48 h, DMEM/F12 with 10% FBS, mean ± SD of at least three independent experiments. How it is done: as §1, §2, §3
Assay [4] relates to A549 (human lung carcinoma cells). It is filed as cell-based. To be noted: MTT after 48 h, DMEM/F12 with 10% FBS, mean ± SD of at least three independent experiments. Here is the method:
as §1, §2, §3

Assay [5] concerns HEK 293T (transformed human embryonic kidney cells). Type of assay: cell-based. To be noted: MTT after 48 h, DMEM/F12 with 10% FBS, mean ± SD of at least three independent experiments. Here is the method:
as §1, §2, §3

For assay [6], the system named is NHA (normal human astrocytes). It is filed as cell-based. To be noted: NHA normal cells; MTT after 48 h, DMEM/F12 with 10% FBS; mean ± SD of at least three independent experiments. How it is done: as §1, §2, §3
For assay [7], the system named is SK-BR-3 (human breast adenocarcinoma cells). Type of assay: cell-based. The conditions noted are these: MTT after 48 h, DMEM/F12 with 10% FBS, mean ± SD of at least three independent experiments. How it is done:
as §1, §2, §3

Molecules are shown by their SMILES. Several values for one entry are separate records, joined by “and”; a condition that tells them apart may be missing. Identical values can stand only once. Where a SMILES comes first, the peptide text is derived from it. Bridges are numbered along the chain shown (N, C = ends).

As for `CC(C)[C@@H]1NC(=O)[C@H](CCCNC(=N)N)NC(=O)[C@H](Cc2ccccc2)NC(=O)[C@@H](NC(=O)[C@H](Cc2c[nH]c3ccccc23)NC(=O)[C@H](CCCNC(=N)N)NC(=O)[C@@H](N)CCCNC(=N)N)CSSC[C@@H](C(=O)N[C@@H](CCCNC(=N)N)C(=O)O)NC(=O)[C@H](CCCCN)NC(=O)[C@H](CCCNC(=N)N)NC(=O)[C@H](Cc2ccc(O)cc2)NC(=O)[C@@H]2CSSC[C@H](NC1=O)C(=O)N[C@@H](Cc1ccc(O)cc1)C(=O)N[C@@H](CCCNC(=N)N)C(=O)NCC(=O)N[C@@H](Cc1ccccc1)C(=O)N2` [PM I, polyphemusin I] (H-RRWCFRVCYRGFCYRKCR-OH; disulfide 4-17, 8-13 (inferred); N-terminus assumed), the MICs result in assay [1] is listed as “exceeding 1 μM”. Besides, the IC50 in assay [2] is 8.3 ± 0.7 µM; in assay [3], 12.5 ± 0.9 µM; in assay [4] it was 8.8 ± 1.3 µM; in assay [5] it was 9.4 ± 1.5 µM; in assay [6], 14.5 ± 1.6 µM; in assay [7], 16 ± 0.6 µM.
For the molecule `CC(C)[C@@H]1NC(=O)[C@H](CCCNC(=N)N)NC(=O)[C@H](Cc2ccccc2)NC(=O)[C@@H](NC(=O)[C@H](Cc2c[nH]c3ccccc23)NC(=O)[C@H](CCCNC(=N)N)NC(=O)[C@@H](N)CCCNC(=N)N)CSSC[C@@H](C(=O)N[C@@H](CCCNC(=N)N)C(=O)O)NC(=O)[C@H](CCCCN)NC(=O)[C@H](CCCNC(=N)N)NC(=O)[C@H](Cc2ccc(O)cc2)NC(=O)[C@@H]2CSSC[C@H](NC1=O)C(=O)N[C@@H](Cc1ccc(O)cc1)C(=O)N[C@@H](CCCCN)C(=O)NCC(=O)N[C@@H](Cc1ccccc1)C(=O)N2` [PM II, polyphemusin II] (H-RRWCFRVCYKGFCYRKCR-OH; disulfide 4-17, 8-13 (inferred); N-terminus assumed), the MICs entry in assay [1] is given as “exceeding 1 μM”. In addition, the IC50 in assay [2] is 7 µM and 9.7 µM; in assay [3], 16.4 ± 1.3 µM; in assay [4], 10.8 ± 1.9 µM; in assay [5], 11.3 ± 1.6 µM; in assay [6] it was 18.3 ± 1.4 µM; in assay [7] it was 17.3 ± 0.6 µM.
On to `CC(C)[C@@H]1NC(=O)[C@H](CCCNC(=N)N)NC(=O)[C@H](Cc2ccccc2)NC(=O)[C@@H](NC(=O)CNC(=O)[C@H](CCCNC(=N)N)NC(=O)[C@@H](N)CCCNC(=N)N)CSSC[C@@H](C(=O)N[C@@H](CCCNC(=N)N)C(=O)O)NC(=O)[C@H](CCCNC(=N)N)NC(=O)[C@H](CCC(N)=O)NC(=O)[C@H](Cc2ccccc2)NC(=O)[C@@H]2CSSC[C@H](NC1=O)C(=O)N[C@@H](Cc1ccc(O)cc1)C(=O)N[C@@H](CCCNC(=N)N)C(=O)NCC(=O)N[C@@H](Cc1ccccc1)C(=O)N2` [PM III, polyphemusin III] (H-RRGCFRVCYRGFCFQRCR-OH; disulfide 4-17, 8-13 (inferred); N-terminus assumed), for which the concentration for half-maximal inhibition (IC50) in assay [2] is 7 ± 0.4 µM; in assay [3], 6 ± 0.2 µM; in assay [5], 7.3 ± 0.4 µM; in assay [6], 7.5 ± 0.5 µM; in assay [7] it was 9.9 ± 0.1 µM.
Take `CC[C@H](C)[C@@H]1NC(=O)CNC(=O)[C@H](CCCNC(=N)N)NC(=O)[C@H](Cc2ccc(O)cc2)NC(=O)[C@@H]2CSSC[C@H](NC1=O)C(=O)N[C@@H](Cc1ccc(O)cc1)C(=O)N[C@@H](CCCNC(=N)N)C(=O)N[C@@H](CCCNC(=N)N)C(=O)N[C@H](C(=O)N[C@@H](CCCNC(=N)N)C(=O)O)CSSC[C@H](NC(=O)[C@H](Cc1c[nH]c3ccccc13)NC(=O)[C@@H](N)CCCCN)C(=O)N[C@@H](Cc1ccccc1)C(=O)N[C@@H](CCCNC(=N)N)C(=O)N[C@@H](C(C)C)C(=O)N2` [TP I, tachyplesin I] (H-KWCFRVCYRGICYRRCR-OH; disulfide 3-16, 7-12 (inferred); N-terminus assumed): the MICs result in assay [1] is listed as “exceeding 1 μM”. The IC50 in assay [2] is 13 ± 1.5 µM; in assay [3], 24.2 ± 1.7 µM; in assay [4] it was 26.5 ± 1.2 µM; in assay [5] it was 23.5 ± 1.2 µM; in assay [6], 24.7 ± 1.8 µM; in assay [7] it was 30.1 ± 1.9 µM.
With `CC[C@H](C)[C@@H]1NC(=O)CNC(=O)[C@H](CCCNC(=N)N)NC(=O)[C@H](Cc2ccc(O)cc2)NC(=O)[C@@H]2CSSC[C@H](NC1=O)C(=O)N[C@@H](Cc1ccc(O)cc1)C(=O)N[C@@H](CCCNC(=N)N)C(=O)N[C@@H](CCCCN)C(=O)N[C@H](C(=O)N[C@@H](CCCNC(=N)N)C(=O)O)CSSC[C@H](NC(=O)[C@H](Cc1c[nH]c3ccccc13)NC(=O)[C@@H](N)CCCNC(=N)N)C(=O)N[C@@H](Cc1ccccc1)C(=O)N[C@@H](CCCNC(=N)N)C(=O)N[C@@H](C(C)C)C(=O)N2` [TP II, tachyplesin II] (H-RWCFRVCYRGICYRKCR-OH; disulfide 3-16, 7-12 (inferred); N-terminus assumed), in assay [1], the MICs result is “exceeding 1 μM”. For the same molecule, the half-maximal inhibitory concentration (IC50) in assay [2] is 17.7 ± 1.2 µM; in assay [3], 24.4 ± 3 µM; in assay [4], 28.1 ± 1.7 µM; in assay [5], 24.6 ± 1.7 µM; in assay [6], 29.4 ± 1.7 µM; in assay [7] it was 34 ± 1.3 µM.
As to `CC[C@H](C)[C@@H]1NC(=O)CNC(=O)[C@H](CCCNC(=N)N)NC(=O)[C@H](Cc2ccc(O)cc2)NC(=O)[C@@H]2CSSC[C@H](NC1=O)C(=O)N[C@@H](Cc1ccc(O)cc1)C(=O)N[C@@H](CCCNC(=N)N)C(=O)N[C@@H](CCCCN)C(=O)N[C@H](C(=O)N[C@@H](CCCNC(=N)N)C(=O)O)CSSC[C@H](NC(=O)[C@H](Cc1c[nH]c3ccccc13)NC(=O)[C@@H](N)CCCCN)C(=O)N[C@@H](Cc1ccccc1)C(=O)N[C@@H](CCCNC(=N)N)C(=O)N[C@@H](C(C)C)C(=O)N2` [TP III, tachyplesin III] (H-KWCFRVCYRGICYRKCR-OH; disulfide 3-16, 7-12 (inferred); N-terminus assumed), the IC50 in assay [2] came to 14.1 ± 1.2 µM; in assay [3] it was 13.7 ± 1.3 µM; in assay [4], 15.3 ± 1 µM; in assay [5], 19.7 ± 1.9 µM; in assay [6] it was 21.3 ± 1.2 µM; in assay [7], 27.5 ± 0.8 µM.
